Data as given in patent US6228877A, “Substituted pyrroles” (Hoffmann-La Roche Inc., priority 1998, dated 2001).

System: epithelial breast carcinoma cell line (MDAMB-435)
Assay: effect of compounds on growth of epithelial breast carcinoma cell line MDAMB-435 (MTT, 5 days)
Type: cell-based
Conditions: Homo sapiens, MDA-MB-435, 120 h, MDAMB-435 cells, 5 days post drug addition, 0.1% DMSO
Protocol: The epithelial breast carcinoma cell line (MDAMB-435) was purchased from ATCC (American Type Cell Culture Collection) and was grown in culture in medium as recommended by ATCC. For analysis of the effect of various compounds on growth of these cells, the cells were plated at a concentration of 1500 cells/well in a 96 well tissue culture plate ("test plate). The day after the cells were plated, the compounds to be analyzed were dissolved in 100% DMSO (dimethyl sulfoxide) to yield at 10 mM stock solution. Each compound was diluted in H2 O to 1 mM and was added to triplicate wells in the first row of a 96 well master plate which contains medium to yield a final concentration of 40 μM. The compounds were then serially diluted in medium in the "master plate". The diluted compound(s) were then transferred to test plates containing cells. A row of vehicle "control cells" received DMSO. The final concentration of DMSO in each well was 0.1%. 5 days post drug addition, the plate was analyzed as follows:
MTT (3-(4-5 methyl thiazole-2-yl)-2,5-diphenyl tetrazolium bromide; thiazolyl blue) was added to each well to yield a final concentration of 1 mg/ml. The plate was then incubated at 37° C. for 21/2-3 hours. The MTT containing medium was then removed and 50 μl of 100% ethanol was added to each well to dissolve the formazan. The absorbences were then read using an automated plate reader (Bio-tek microplate reader).
IC50 's were calculated using the Reed and Munsch equation, see Am. J. Hygiene Vol. 27 pgs. 493-497, 1938.

IC50 [nM]	Structure (SMILES)
90	Cn1cc(C2=C(c3cn(C)c4cc([N+](=O)[O-])ccc34)C(=O)NC2=O)c2ccc(OCc3ccccc3)cc21 [H H NO2 Obenzyl, 3-(6-benzyloxy-1-methyl-1H-indol-3-yl)-4-(1-methyl-6-nitro-1H-indol-3-yl)-pyrrole-2,5-dione]
200	COc1ccc2c(C3=C(c4cn(C)c5cccc(F)c45)C(=O)NC3=O)cn(C)c2c1 [F H H CH3 O, 3-(4-Fluoro-1-methyl-1H-indol-3-yl)-4-(6-methoxy-1-methyl-1H-indol-3-yl)-pyrrole-2,5-dione]
200	COc1ccc2c(c1)c(C1=C(c3cn(C)c4cc(Cl)ccc34)C(=O)NC1=O)cn2C [H CH3 O H Cl, 3-(6-Chloro-1-methyl-1H-indol-3-yl)-4-(5-methoxy-1-methyl-1H-indol-3-yl)-pyrrole-2,5-dione]
15	COc1ccc2c(C3=C(c4cn(C)c5cc(N)ccc45)C(=O)NC3=O)cn(C)c2c1 [H H NH2 CH3 O, 3-(6-Amino-1-methyl-1H-indol-3-yl)-4-(6-methoxy-1-methyl-1H-indol-3-yl)-pyrrole-2,5-dione]
200	CCOc1ccc2c(C3=C(c4cn(C)c5cccc(Br)c45)C(=O)NC3=O)cn(C)c2c1 [Br H H EtO, 3-(4-Bromo-1-methyl-1H-indol-3-yl)-4-(6-ethoxy-1-methyl-1H-indol-3-yl)-pyrrole-2,5-dione]
12	Cn1cc(C2=C(c3cn(C)c4cc(Cl)ccc34)C(=O)NC2=O)c2ccc(N)cc21 [H H NH2 Cl, 3-(6-Amino-1-methyl-1H-indol-3-yl)-4-(6-chloro-1-methyl-1H-indol-3-yl)-pyrrole-2,5-dione]
4	Cn1cc(C2=C(c3cn(C)c4cc(Br)ccc34)C(=O)NC2=O)c2ccc(N)cc21 [H H NH2 Br, 3-(6-Amino-1-methyl-1H-indol-3-yl)-4-(6-bromo-1-methyl-1H-indol-3-yl)-pyrrole-2,5-dione]
20	COc1ccc2c(C3=C(c4cn(C)c5cc(F)ccc45)C(=O)NC3=O)cn(C)c2c1 [H H F OCH3, 3-(6-fluoro-1-methyl-1H-indol-3-yl)-4-(6-methoxy-1-methyl-1H-indol-3-yl)-pyrrole-2,5-dione]
20	CC(=O)Nc1ccc2c(C3=C(c4cn(C)c5cc([N+](=O)[O-])ccc45)C(=O)NC3=O)cn(C)c2c1 [H H CH3 CONH NO2]
< 10	Cn1cc(C2=C(c3cn(C)c4cc(C#N)ccc34)C(=O)NC2=O)c2ccc(N)cc21 [H H NH2 CN, 3-[4-(6-Amino-1-methyl-1H-indol-3-yl)-2,5-dioxo-2,5-dihydro-1H-pyrrol-3-yl]-1-methyl-1H-indole-6-carbonitrile]
170	Cn1cc(C2=C(c3cn(C)c4cc([N+](=O)[O-])ccc34)C(=O)NC2=O)c2cc(Cl)ccc21 [H Cl H NO2, 3-(5-Chloro-1-methyl-1H-indol-3-yl)-4-(l-methyl-6-nitro-1H-indol-3-yl)-pyrrole-2,5-dione]
7	COc1ccc2c(C3=C(c4cn(C)c5cc([N+](=O)[O-])ccc45)C(=O)NC3=O)cn(C)c2c1 [H H OCH3 NO2, 3-(6-methoxy-1-methyl-1H-indol-3-yl)-4-(1-methyl-6-nitro-1H-indol-3-yl)-pyrrole-2,5-dione]
10	COc1ccc2c(C3=C(c4cn(C)c5cc(NC=O)ccc45)C(=O)NC3=O)cn(C)c2c1 [H H CHONH CH3 O]
50	COC(=O)c1ccc2c(C3=C(c4cn(C)c5cc(N)ccc45)C(=O)NC3=O)cn(C)c2c1 [H H NH2 CO2 CH3, 3-[4-(6-Amino-1-methyl-1H-indol-3-yl)-2,5-dioxo-2,5-dihydro-1H-pyrrol-3-yl] -1-methyl-1H-indole-6-carboxylic acid methyl ester]
70	Cn1cc(C2=C(c3cn(C)c4cc([N+](=O)[O-])ccc34)C(=O)NC2=O)c2ccc(Cl)cc21 [H H NO2 Cl, 3-(6-chloro-1-methyl-1H-indol-3-yl)-4-(1-methyl-6-nitro-1H-indol-3-yl)-pyrrole-2,5-dione]
7	COC(=O)c1ccc2c(C3=C(c4cn(C)c5cc([N+](=O)[O-])ccc45)C(=O)NC3=O)cn(C)c2c1 [H H CO2 CH3 NO2, 1-methyl-3[4-(1-methyl-6-nitro-1H-indol-3-yl)-2,5-dioxo-2,5-dihydro-1H-pyrrole-3-yl]-1H-indole-6-carboxylic acid methyl ester]

IC50 [nM]	Structure (SMILES)
70	CCOc1ccc2c(C3=C(c4cn(C)c5ccc(OC)cc45)C(=O)NC3=O)cn(C)c2c1 [H CH3 O H EtO, 3-(6-Ethoxy-1-methyl-1H-indol-3-yl)-4-(5-methoxy-1-methyl-1H-indol-3-yl)-pyrrole-2,5-dione]
< 10	CNc1ccc2c(C3=C(c4cn(C)c5cc(OC)ccc45)C(=O)NC3=O)cn(C)c2c1 [H H CH3 NH CH3 O, 3-(6-Methoxy-1-methyl-1H-indol-3-yl)-4-(1-methyl-6-methyl-amino-1H-indol-3-yl)-pyrrole-2,5-dione]
50	Cn1cc(C2=C(c3cn(C)c4cc([N+](=O)[O-])ccc34)C(=O)NC2=O)c2ccc(C#N)cc21 [H H CN NO2, 1-methyl-3-[4-(1-methyl-6-nitro-1H-indol-3-yl)-2,5-dioxo-2,5-dihydro-1H-pyrrol-3-yl]1H-indole-6-carbonitrile]
7	COc1ccc2c(C3=C(c4cn(C)c5cc(Cl)ccc45)C(=O)NC3=O)cn(C)c2c1 [H H Cl OCH3, 3-(6-chloro-1-methyl-1H-indol-3-yl)-4-(6-methoxy-1-methyl-1H-indol-3-yl)-pyrrole-2,5-dione]
70	COc1ccc2c(c1)c(C1=C(c3cn(C)c4cc(C#N)ccc34)C(=O)NC1=O)cn2C [H CH3 O H CN, 3-[4-(5-methoxy-1-methyl-1H-indol-3-yl)-2,5-dioxo-2,5-dihydro-1H-pyrrol-3-yl]-1-methyl-1H-indole-6-carbonitrile]
20	COc1ccc2c(C3=C(c4cn(C)c5cc(C)ccc45)C(=O)NC3=O)cn(C)c2c1 [H H CH3 OCH3, 3-(1,6-dimethyl-1H-indol-3-yl)-4-(6-methoxy-1-methyl-1H-indol-3-yl)-pyrrole-2,5-dione]
70	COc1ccc2c(C3=C(c4cn(C)c5cc(N=[N+]=[N-])ccc45)C(=O)NC3=O)cn(C)c2c1 [H H N3 CH3 O, 3-(6-Azido-1-methyl-1H-indol-3-yl)-4-(6-methoxy-1-methyl-1H-indol-3-yl)-pyrrole-2,5,-dione]
40	CCOCCOCCOc1ccc2c(C3=C(c4cn(C)c5cc([N+](=O)[O-])ccc45)C(=O)NC3=O)cn(C)c2c1 [H H Et(OCH2 CH2)2 O NO2, 3-{6-[2-(2-Ethoxy-ethoxy)-ethoxy]-1-methyl-1H-indol-3-yl}-4-(1-methyl-6-nitro-1H-indol-3-yl)-pyrrole-2,5-dione]
32	CCOc1ccc2c(C3=C(c4cn(C)c5cccc(F)c45)C(=O)NC3=O)cn(C)c2c1 [F H H EtO, 3-(4-Fluoro-1-methyl-1H-indol-3-yl)-4-(6-ethoxy-1-methyl-1H-indol-3-yl)-pyrrole-2,5-dione]
400	Cc1ccc2c(c1)c(C1=C(c3cn(C)c4cc(C)ccc34)C(=O)NC1=O)cn2C [H CH3 H CH3, 3-(1,6-Dimethyl-1H-indol-3-yl)-4-(1,5-dimethyl-1H-indol-3-yl)-pyrrole-2,5-dione]
70	Cc1ccc2c(C3=C(c4cn(C)c5cc([N+](=O)[O-])ccc45)C(=O)NC3=O)cn(C)c2c1 [H H CH3 NO2, 3-(1,6-dimethyl-1H-indol-3-yl)-4-(1-methyl-6-nitro-1H-indol-3-yl)-pyrrole-2,5-dione]
400	COc1cccc2c1c(C1=C(c3cn(C)c4cc([N+](=O)[O-])ccc34)C(=O)NC1=O)cn2C [CH3 O H H NO2, 3-(4-Methoxy-1-methyl-1H-indol-3-yl)-4-(1-methyl-6-nitro-1H-indol-3-yl)-pyrrole-2,5-dione]
50	Cn1cc(C2=C(c3cn(C)c4cccc(F)c34)C(=O)NC2=O)c2ccc([N+](=O)[O-])cc21 [F H H NO2, 3-(4-Fluoro-1-methyl-1H-indol-3-yl)-4-(1-methyl-6-nitro-1H-indol-3-yl)-pyrrole-2,5-dione]
400	Cc1ccc2c(C3=C(c4cn(C)c5ccc(Cl)cc45)C(=O)NC3=O)cn(C)c2c1 [H Cl H CH3, 3-(5-Chloro-1-methyl-1H-indol-3-yl)-4-(1,6-dimethyl-1H-indol-3-yl)-pyrrole-2,5-dione]
< 10	Cn1cc(C2=C(c3cn(C)c4cc([N+](=O)[O-])ccc34)C(=O)NC2=O)c2ccc(N)cc21 [H H NH2 NO2, 3-(6-Amino-1-methyl-1H-indol-3-yl)-4-(1-methyl-6-nitro-1H-indol-3-yl)-pyrrole-2,5-dione]

Structure (SMILES)	IC50 [nM]
Cn1cc(C2=C(c3cn(C)c4cc([N+](=O)[O-])ccc34)C(=O)NC2=O)c2ccc([N+](=O)[O-])cc21 [H H NO2 NO2, 3,4-Bis-(1-methyl-6-nitro-1H-indol-3-yl)-pyrrole-2,5-dione]	70
Cn1cc(C2=C(c3cn(C)c4cc([N+](=O)[O-])ccc34)C(=O)NC2=O)c2cc([N+](=O)[O-])ccc21 [H NO2 H NO2, 3-(1-methyl-5-nitro-1H-indol-3-yl)-4-(1-methyl-6-nitro-1H-indol-3-yl)-pyrrole-2,5-dione]	830
